Laboratory results as given in US4708956A, “3-position halogenated cephalosporin analogs and pharmaceutical compositions” (Kyowa Hakko Kogyo Co., Ltd., priority 1986, dated 1987).
≈ marks a conversion by molar mass, not a printed value. Where two headings read alike, the source gives them in different places.

Assays:
[1] = tested on: Gram-positive and Gram-negative bacteria; settings: J. Am. Chem. Soc., 96, 7584 (1974); J. Med. Chem., 20, 551 (1977); cited from earlier work
[2] = tested on: Klebsiella pneumoniae Y-60; assay: Heart Infusion Agar Dilution Method, minimum inhibitory concentration; type: cell-based
Procedure: (§1) The activity is determined by the Heart Infusion Agar Dilution Method (pH 7.2).

[3] = tested on: Klebsiella pneumoniae 8045; assay: as above; type: cell-based; settings: pH 7.2
Procedure: as §1

Escherichia coli Juhl = assay: as above; type: cell-based
Procedure: as §1

Proteus vulgaris 6897 = assay: as above; type: cell-based; settings: pH 7.2
Procedure: as §1

Escherichia coli NIHJC-2 = assay: as above; type: cell-based
Procedure: as §1

Proteus rettgeri KY4289 = assay: as above; type: cell-based; settings: Providencia rettgeri
Procedure: as §1

[4] = tested on: Staphylococcus aureus Smith; assay: as above; type: cell-based; settings: pH 7.2
Procedure: as §1

Serratia marcescens T-55 = assay: as above; type: cell-based
Procedure: as §1

Pseudomonas putida F264 = assay: as above; type: cell-based
Procedure: as §1

[5] = tested on: Staphylococcus aureus 209-p; assay: as above; type: cell-based
Procedure: as §1

Proteus morganii KY4298 = assay: as above; type: cell-based; settings: Morganella morganii
Procedure: as §1

[6] = tested on: Staphylococcus epidermidis; assay: as above; type: cell-based; settings: pH 7.2
Procedure: as §1

Proteus mirabilis 1287 = assay: as above; type: cell-based; settings: pH 7.2
Procedure: as §1

[7] = tested on: Gram-positive and Gram-negative bacteria; assay: antibacterial activity (general statements); type: cell-based; settings: general or comparative statement
[8] = Y60, Klebsiella pneumoniae Y-60, Heart Infusion Agar Dilution Method, pH 7.2, read-out: Minimum Inhibitory Concentration
[9] = Escherichia coli Juhl, Heart Infusion Agar Dilution Method, pH 7.2, read-out: Minimum Inhibitory Concentration
[10] = NIHJC2, Escherichia coli NIHJC-2, Heart Infusion Agar Dilution Method, pH 7.2, read-out: Minimum Inhibitory Concentration
[11] = Proteus rettgeri KY4289, Heart Infusion Agar Dilution Method, pH 7.2, read-out: Minimum Inhibitory Concentration
[12] = T55, Serratia marcescens T-55, Heart Infusion Agar Dilution Method, pH 7.2, read-out: Minimum Inhibitory Concentration
[13] = Pseudomonas putida F264, Heart Infusion Agar Dilution Method, pH 7.2, read-out: Minimum Inhibitory Concentration
[14] = Staphylococcus aureus 209-p, Heart Infusion Agar Dilution Method, pH 7.2, read-out: Minimum Inhibitory Concentration
[15] = Proteus morganii KY4298, Heart Infusion Agar Dilution Method, pH 7.2, read-out: Minimum Inhibitory Concentration

## CC(=O)OCC1=C(C(=O)O)N2C(=O)C(NC(=O)Cc3cccs3)C2CC1 (racemic) [(i)-1-carbacephalotin]
[1]
  antibacterial activity, in words (literature): having antibacterial activity

## CO/N=C(\C(=O)N[C@@H]1C(=O)N2C(C(=O)O)=C(Cl)CC[C@H]12)c1ccco1 (relative stereo) [c, cis-7-[2-(2-furyl)-2-syn-methoxyiminoacetamido]-3-chloro-1-azabicyclo[4,2,0]oct-2-en-8-on-2-carboxylic acid]
[2]; [8]
  MIC: 50 mg/L (≈ 136 µM)
[3]
  MIC: 12.5 mg/L (≈ 34 µM)
Escherichia coli Juhl; [9]
  MIC: 50 mg/L (≈ 136 µM)
Proteus vulgaris 6897
  MIC: 25 mg/L (≈ 68 µM)
Escherichia coli NIHJC-2; [10]
  MIC: 50 mg/L (≈ 136 µM)
Proteus rettgeri KY4289; [11]
  MIC: 25 mg/L (≈ 68 µM)
[4]
  MIC: 12.5 mg/L (≈ 34 µM)
Serratia marcescens T-55; [12]
  MIC: > 100 mg/L
Pseudomonas putida F264; [13]
  MIC: > 100 mg/L
[5]; [14]
  MIC: 6.25 mg/L (≈ 17 µM)
Proteus morganii KY4298; [15]
  MIC: > 100 mg/L
[6]
  MIC: 25 mg/L (≈ 68 µM)
Proteus mirabilis 1287
  MIC: 12.5 mg/L (≈ 34 µM)

## CO/N=C(\C(=O)N[C@@H]1C(=O)N2C(C(=O)O)=C(Cl)CC[C@H]12)c1csc(N)n1 (relative stereo) [d, (±)-cis-7-[2-(2-aminothiazole-4-yl)-2-syn-methoxyiminoacetamido]-3-chloro-1-azabicyclo[4,2,0]oct-2en-8-on-2-carboxylic acid]
[2]; [8]
  MIC: 0.78 mg/L (≈ 1.95 µM)
[3]
  MIC: ≤ 0.05 mg/L
Escherichia coli Juhl; [9]
  MIC: 0.4 mg/L (≈ 1 µM)
Proteus vulgaris 6897
  MIC: 0.4 mg/L (≈ 1 µM)
Escherichia coli NIHJC-2; [10]
  MIC: 0.78 mg/L (≈ 1.95 µM)
Proteus rettgeri KY4289; [11]
  MIC: 0.1 mg/L (≈ 0.25 µM)
[4]
  MIC: 50 mg/L (≈ 125 µM)
Serratia marcescens T-55; [12]
  MIC: 1.56 mg/L (≈ 3.9 µM)
Pseudomonas putida F264; [13]
  MIC: 3.12 mg/L (≈ 7.8 µM)
[5]; [14]
  MIC: 50 mg/L (≈ 125 µM)
Proteus morganii KY4298; [15]
  MIC: 0.4 mg/L (≈ 1 µM)
[6]
  MIC: 50 mg/L (≈ 125 µM)
Proteus mirabilis 1287
  MIC: 0.1 mg/L (≈ 0.25 µM)

## N[C@@H](C(=O)N[C@@H]1C(=O)N2C(C(=O)O)=C(Cl)CC[C@H]12)c1ccccc1 [a, (6R, 7S) 7-(R)-phenylglycinamido-3-chloro-1-azabicyclo[4,2,0]oct-2-en-8-on-2-carboxylic acid]
[7]
  antibacterial (antimicrobial) activity, in words: greater antimicrobial activity
Proteus vulgaris 6897
  MIC: 100 mg/L (≈ 286 µM)
Proteus rettgeri KY4289; [11]
  MIC: 100 mg/L (≈ 286 µM)
Pseudomonas putida F264; [13]
  MIC: 100 mg/L (≈ 286 µM)
Proteus morganii KY4298; [15]
  MIC: > 100 mg/L

## CCN1CCN(C(=O)N[C@@H](C(=O)N[C@@H]2C(=O)N3C(C(=O)O)=C(Cl)CC[C@H]23)c2ccccc2)C(=O)C1=O [b, (6R, 7S) 7-[(R)-2-phenyl-2-(4-ethyl-2,3-dioxopiperadinylcarbonylamino)-acetamido]-3-chloro-1-azabicyclo[4,2,0]oct-2-en-8-on-2-carboxylic acid]
[2]; [8]
  MIC: 12.5 mg/L (≈ 24.1 µM)
[3]
  MIC: 0.1 mg/L (≈ 0.193 µM)
Escherichia coli Juhl; [9]
  MIC: 3.12 mg/L (≈ 6.02 µM)
Proteus vulgaris 6897
  MIC: ≤ 0.05 mg/L
Escherichia coli NIHJC-2; [10]
  MIC: 3.12 mg/L (≈ 6.02 µM)
Proteus rettgeri KY4289; [11]
  MIC: 3.12 mg/L (≈ 6.02 µM)
[4]
  MIC: 1.56 mg/L (≈ 3.01 µM)
Serratia marcescens T-55; [12]
  MIC: 3.12 mg/L (≈ 6.02 µM)
Pseudomonas putida F264; [13]
  MIC: 25 mg/L (≈ 48.3 µM)
[5]; [14]
  MIC: 0.4 mg/L (≈ 0.772 µM)
Proteus morganii KY4298; [15]
  MIC: 3.12 mg/L (≈ 6.02 µM)
[6]
  MIC: 1.56 mg/L (≈ 3.01 µM)
Proteus mirabilis 1287
  MIC: 1.56 mg/L (≈ 3.01 µM)

## N[C@@H](C(=O)N[C@@H]1C(=O)N2C(C(=O)O)=C(Cl)CC[C@H]12)c1ccc(O)cc1 [e, (6R, 7S) 7-(R)-p-hydroxyphenyl-glycinamido-3-chloro-1-azabicyclo[4,2,0]oct-2-en-8-on-2-carboxylic acid]
[2]; [8]
  MIC: 12.5 mg/L (≈ 34.2 µM)
[3]
  MIC: 0.78 mg/L (≈ 2.13 µM)
Escherichia coli Juhl; [9]
  MIC: 1.56 mg/L (≈ 4.26 µM)
Proteus vulgaris 6897
  MIC: 100 mg/L (≈ 273 µM)
Escherichia coli NIHJC-2; [10]
  MIC: 1.56 mg/L (≈ 4.26 µM)
Proteus rettgeri KY4289; [11]
  MIC: 100 mg/L (≈ 273 µM)
[4]
  MIC: 1.56 mg/L (≈ 4.26 µM)
Serratia marcescens T-55; [12]
  MIC: 6.25 mg/L (≈ 17.1 µM)
Pseudomonas putida F264; [13]
  MIC: 100 mg/L (≈ 273 µM)
[5]; [14]
  MIC: 0.4 mg/L (≈ 1.09 µM)
Proteus morganii KY4298; [15]
  MIC: > 100 mg/L
[6]
  MIC: 1.56 mg/L (≈ 4.26 µM)
Proteus mirabilis 1287
  MIC: 3.12 mg/L (≈ 8.53 µM)

## CC1=C(C(=O)O)N2C(=O)[C@@H](NC(=O)[C@H](N)c3ccccc3)[C@H]2SC1 [f, Cephalexin, reference compound]
[2]; Klebsiella pneumoniae, Y60, pH 7.2, read-out: Minimum Inhibitory Concentration
  MIC: 50 mg/L (≈ 144 µM)
Escherichia coli Juhl; Escherichia coli, pH 7.2, read-out: Minimum Inhibitory Concentration
  MIC: 12.5 mg/L (≈ 36 µM)
Escherichia coli NIHJC-2; Escherichia coli, NIHJC2, pH 7.2, read-out: Minimum Inhibitory Concentration
  MIC: 12.5 mg/L (≈ 36 µM)
Proteus rettgeri KY4289; KY4289, pH 7.2, read-out: Minimum Inhibitory Concentration
  MIC: > 100 mg/L
Serratia marcescens T-55; Serratia marcescens, T55, pH 7.2, read-out: Minimum Inhibitory Concentration
  MIC: 50 mg/L (≈ 144 µM)
Pseudomonas putida F264; Pseudomonas putida, F264, pH 7.2, read-out: Minimum Inhibitory Concentration
  MIC: > 100 mg/L
[5]; Staphylococcus aureus, 209P, pH 7.2, read-out: Minimum Inhibitory Concentration
  MIC: 0.2 mg/L (≈ 0.576 µM)
Proteus morganii KY4298; KY4298, pH 7.2, read-out: Minimum Inhibitory Concentration
  MIC: > 100 mg/L
